Data reported in ChEMBL document CHEMBL3137667, “[Drug-induced liver injury; fourteenth updated edition of the bibliographic database of liver injuries and related drugs]” (Gastroenterol Clin Biol, 2004).

Assays:
[1] = human
[2] = human; remark: listed apart in the source
[3] = human, serum
[4] = human; remark: listed apart in the source
[5] = human, serum; remark: listed apart in the source
[6] = human; remark: listed apart in the source
[7] = human; remark: listed apart in the source
[8] = human; remark: listed apart in the source
[9] = human; remark: listed apart in the source
[10] = Highest frequency of moderate liver toxicity observed during clinical trials, expressed as a percentage. [column '% BIOL' in source]; details: human
[11] = human, serum, 4383 h
[12] = Highest frequency of acute liver toxicity observed during clinical trials, expressed as a percentage. [column '% AIGUE' in source]; details: human
[13] = human; remark: listed apart in the source
[14] = human; remark: listed apart in the source
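For Hepatotoxicity (association with vascular disease) in this document: count of indexed literature references reporting vascular liver injury in humans, e.g. peliosis hepatitis, hepatic veno-occlusive disease or Budd-Chiari syndrome.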
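For Hepatotoxicity (benign tumour) in this document: value is a count of indexed literature references citing a benign tumour confirmed by histopathology.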
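For Hepatotoxicity (choleostasis) in this document: human cholestatic liver injury, shown by histopathology or by peak ALT or AST elevation over alkaline phosphatase ratio below 2, value counts indexed literature reports.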
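For Hepatotoxicity (chronic liver disease) in this document: chronic liver injury confirmed by histopathology or persistently raised serum aminotransferase activity beyond 6 months, value given as the count of indexed literature references.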
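For Hepatotoxicity (cirrhosis) in this document: value is a count of indexed literature references reporting cirrhosis confirmed by histopathology.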
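For Hepatotoxicity (cytolytic) in this document: human cytolytic liver injury, shown by histopathology or by a ratio above 5 of peak ALT or AST elevation to alkaline phosphatase elevation, value counts indexed references.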
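For Hepatotoxicity (granulomatous hepatitis) in this document: value is a count of indexed literature references reporting granulomatous liver disease confirmed by histopathology.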
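For Hepatotoxicity (malignant tumour) in this document: malignant tumour confirmed by histopathology, value gives the count of indexed literature references reporting it.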
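For Hepatotoxicity (severe hepatitis) in this document: human clinical data: severe hepatitis, meaning potentially life-threatening liver failure or clinically observed cases, the value counts how many indexed literature references report it.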
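For Hepatotoxicity (steatosis) in this document: steatosis confirmed by histopathology, value is the count of indexed references.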

Structure (SMILES) | Hepatotoxicity (malignant tumour) [1] | Hepatotoxicity (cirrhosis) [2] | Hepatotoxicity (acute) [3] | Hepatotoxicity (granulomatous hepatitis) [4] | Hepatotoxicity (moderate) [5] | Hepatotoxicity (severe hepatitis) [6] | Hepatotoxicity (choleostasis) [7] | Hepatotoxicity (cytolytic) [8] | Hepatotoxicity (benign tumour) [9] | Hepatotoxicity (moderate) [10] [%] | Hepatotoxicity (chronic liver disease) [11] | Hepatotoxicity (acute) [12] [%] | Hepatotoxicity (association with vascular disease) [13] | Hepatotoxicity (steatosis) [14] | Hepatotoxicity (granulomatous hepatitis) ([4]; Liver) | Hepatotoxicity (severe hepatitis) ([6]; Liver) | Hepatotoxicity (choleostasis) ([7]; Liver) | Hepatotoxicity (cytolytic) ([8]; Liver) | Hepatotoxicity (moderate) ([10]; Liver) [%] | Hepatotoxicity (acute) ([12]; Liver) [%]
CC1CN(c2cc3c(cc2F)c(=O)c(C(=O)O)cn3-c2ccc(F)cc2F)CCN1 (centres undefined) [TEMAFLOXACIN] | 0 | 0 | 0 | 0 | 33 | 0 | 0 | 0 | 0 | 44.4 | 0 | 0 | 0 | 0 |  |  |  |  |  | 
Cn1nnc2c(C(N)=O)ncn2c1=O [TEMOZOLOMIDE] | 0 | 0 | 1 | 0 | 1 | 0 | 0 | 1 | 0 | 47.5 | 0 | 3 | 0 | 0 |  |  |  |  |  | 
NC(=O)N1C(=O)/C(=C(\O)c2cccs2)c2cc(Cl)ccc21 [TENIDAP] | 0 | 0 | 2 | 0 | 3 | 0 | 1 | 1 | 0 | 18.8 | 0 | 0.8 | 0 | 0 |  |  |  |  |  | 
COc1ccc(-n2nc(CCC(=O)N(C)O)cc2-c2ccc(Cl)cc2)cc1 [TEPOXALIN] | 0 | 0 | 0 | 0 | 1 | 0 | 0 | 0 | 0 | 2.5 | 0 | 0 | 0 | 0 |  |  |  |  |  | 
C[C@@H]1C[C@H](C)CN(S(=O)(=O)c2ccc(Cl)c(C(=O)O)c2)C1 [TIBRIC ACID] | 0 | 0 | 0 | 0 | 1 | 0 | 0 | 0 | 0 | 0 | 0 | 0 | 0 | 0 |  |  |  |  |  | 
CC(C)CCOc1ccc(NC(=S)Nc2ccc(OCCC(C)C)cc2)cc1 [TIOCARLIDE] | 0 | 0 | 2 | 0 | 1 | 0 | 0 | 2 | 0 | 4.5 | 0 | 0.4 | 0 | 0 |  |  |  |  |  | 
Clc1ccc(C(Cn2ccnc2)OCc2ccsc2Cl)c(Cl)c1 (centres undefined) [TIOCONAZOLE] | 0 | 0 | 0 |  | 1 |  |  |  | 0 |  | 0 |  | 0 | 0 | 0 | 0 | 0 | 0 | 5.3 | 0
O=C1CC2(CCCC2)CC(=O)N1CCCCN1CCN(c2nsc3ccccc23)CC1 [TIOSPIRONE] | 0 | 0 | 0 | 0 | 1 | 0 | 0 | 0 | 0 | 7.1 | 0 | 0 | 0 | 0 |  |  |  |  |  | 
CC[C@@]1(O)C(=O)OCc2c1cc1n(c2=O)Cc2cc3c(CN(C)C)c(O)ccc3nc2-1 [TOPOTECAN] | 0 | 0 | 0 | 0 | 1 | 0 | 0 | 0 | 0 | 5.3 | 0 | 0 | 0 | 0 |  |  |  |  |  | 
Cc1cccc(Nc2ccncc2S(=O)(=O)NC(=O)NC(C)C)c1 [TORSEMIDE] | 0 | 0 | 0 | 0 | 1 | 0 | 0 | 0 | 0 | 0.6 | 0 | 0 | 0 | 0 |  |  |  |  |  | 
NC1CCN(c2nc3c(cc2F)c(=O)c(C(=O)O)cn3-c2ccc(F)cc2F)C1 (centres undefined) [TOSUFLOXACIN] | 0 | 0 | 0 | 0 | 3 | 0 | 0 | 0 | 0 | 6.1 | 0 | 0 | 0 | 0 |  |  |  |  |  | 
COc1cccc(C2(O)CCCCC2CN(C)C)c1 (centres undefined) [TRAMADOL] | 0 | 0 | 0 | 0 | 1 | 0 | 0 | 0 | 0 | 0 | 0 | 0 | 0 | 0 |  |  |  |  |  | 
OC(CCN1CCCCC1)(c1ccccc1)C1CCCCC1 (centres undefined) [TRIHEXYPHENIDYL] | 0 | 0 | 1 |  | 0 |  |  |  | 0 |  | 0 |  | 0 | 0 | 0 | 1 | 0 | 1 | 0 | 0
COc1cc(NCc2ccc3nc(N)nc(N)c3c2C)cc(OC)c1OC [TRIMETREXATE] | 0 | 0 | 1 | 0 | 10 | 0 | 0 | 0 | 0 | 25 | 0 | 8 | 0 | 0 |  |  |  |  |  | 
CCCCC(C)(C)[C@H](O)/C=C/[C@H]1[C@H](C)CC(=O)[C@@H]1C/C=C\CCCC(=O)O [TRIMOPROSTIL] | 0 | 0 | 0 | 0 | 1 | 0 | 0 | 0 | 0 | 0 | 0 | 0 | 0 | 0 |  |  |  |  |  | 
CN(C)CCN(Cc1ccccc1)c1ccccn1 [TRIPELENNAMINE] | 0 | 0 | 1 | 0 | 0 | 0 | 1 | 1 | 0 | 0 | 0 | 0 | 0 | 0 |  |  |  |  |  | 
